Results: US20170158745A1, “IDR PEPTIDE COMPOSITIONS AND USE THEREOF FOR TREATMENT OF TH2-DYSREGULATED INFLAMMATORY CONDITIONS” (University of Manitoba, priority 2013, published 2017)
Residues, ends and D or L forms follow the SMILES beside them.

Legend:
Format in all cases: in vivo, mouse (Balb/c)
Details in all cases: BALF, serum or lung tissue extract
TNFα = assay: Induction of TNFα by the peptide itself
IL-5 = assay: Induction of IL-5 by the peptide itself
IL-1β = assay: Induction of IL-1β by the peptide itself
IL-4 = assay: Induction of IL-4 by the peptide itself

CC[C@H](C)[C@H](NC(=O)[C@H](CCCNC(=N)N)NC(=O)[C@H](Cc1c[nH]c2ccccc12)NC(=O)[C@@H](NC(=O)[C@@H](NC(=O)[C@H](CC(C)C)NC(=O)[C@H](Cc1c[nH]c2ccccc12)NC(=O)[C@H](CCCNC(=N)N)NC(=O)[C@H](CCC(N)=O)NC(=O)[C@@H](N)C(C)C)[C@@H](C)CC)C(C)C)C(=O)N[C@@H](CCCNC(=N)N)C(=O)N[C@@H](CCCCN)C(N)=O [IDR 1002, VQRWLIVWRIRK-NH2] (H-VQRWLIVWRIRK-NH2)
did not induce: induction of TNFα (TNFα) | induction of IL-5 (IL-5) | induction of IL-1β (IL-1β) | induction of IL-4 (IL-4)
